Results as given in ChEMBL document CHEMBL2311476, “Inhibitory effects of metachromins L-Q and its related analogs against receptor tyrosine kinases EGFR and HER2” (Bioorg Med Chem Lett, 2013).
≈ marks a conversion by molar mass, not a printed value.

Legend:
[1] = biological target: Epidermal growth factor receptor (Homo sapiens, UniProt P00533); test: Inhibition of EGFR (unknown origin) by Z-LYTE assay
[2] = biological target: Receptor tyrosine-protein kinase erbB-2 (Homo sapiens, UniProt P04626); test: Inhibition of HER2 (unknown origin) by Z-LYTE assay
Sequence of Receptor tyrosine-protein kinase erbB-2 (P04626 whole entry): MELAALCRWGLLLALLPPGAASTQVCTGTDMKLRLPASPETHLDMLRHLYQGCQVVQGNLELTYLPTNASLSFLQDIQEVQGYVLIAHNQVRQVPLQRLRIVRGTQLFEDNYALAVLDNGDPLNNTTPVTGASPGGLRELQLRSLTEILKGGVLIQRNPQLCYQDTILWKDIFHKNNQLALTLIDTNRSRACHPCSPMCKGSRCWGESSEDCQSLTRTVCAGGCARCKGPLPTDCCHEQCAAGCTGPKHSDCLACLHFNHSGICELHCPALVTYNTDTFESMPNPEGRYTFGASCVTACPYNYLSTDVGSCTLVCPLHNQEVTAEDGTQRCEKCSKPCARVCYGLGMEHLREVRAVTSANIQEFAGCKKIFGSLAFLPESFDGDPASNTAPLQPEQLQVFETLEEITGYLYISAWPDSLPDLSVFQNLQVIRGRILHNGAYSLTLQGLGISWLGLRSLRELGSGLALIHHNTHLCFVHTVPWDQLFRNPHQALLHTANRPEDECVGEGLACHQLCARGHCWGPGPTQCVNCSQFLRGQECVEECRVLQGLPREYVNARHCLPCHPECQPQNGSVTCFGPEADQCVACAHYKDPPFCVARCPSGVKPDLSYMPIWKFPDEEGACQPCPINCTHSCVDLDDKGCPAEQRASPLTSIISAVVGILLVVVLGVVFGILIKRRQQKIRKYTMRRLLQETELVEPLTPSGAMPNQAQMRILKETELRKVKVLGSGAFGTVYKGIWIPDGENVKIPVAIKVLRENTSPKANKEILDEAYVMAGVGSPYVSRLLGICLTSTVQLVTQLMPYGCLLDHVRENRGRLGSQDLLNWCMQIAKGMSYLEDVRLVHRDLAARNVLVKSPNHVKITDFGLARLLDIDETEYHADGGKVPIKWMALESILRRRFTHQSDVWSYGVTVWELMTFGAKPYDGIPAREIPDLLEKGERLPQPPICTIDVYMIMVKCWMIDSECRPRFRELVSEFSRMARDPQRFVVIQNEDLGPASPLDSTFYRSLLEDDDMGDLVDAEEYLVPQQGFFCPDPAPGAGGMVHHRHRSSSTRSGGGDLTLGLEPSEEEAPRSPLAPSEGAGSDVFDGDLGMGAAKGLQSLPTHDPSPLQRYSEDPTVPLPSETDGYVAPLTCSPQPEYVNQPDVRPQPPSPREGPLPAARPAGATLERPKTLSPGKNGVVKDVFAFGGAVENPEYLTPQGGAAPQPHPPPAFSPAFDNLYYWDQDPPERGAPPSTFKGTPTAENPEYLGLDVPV

KB = test: Cytotoxicity against human KB cells after 48 hrs; type: cell-based
L1210 = test: Cytotoxicity against mouse L1210 cells after 48 hrs; type: cell-based; conditions: L1210, 48 h

Sequence of Epidermal growth factor receptor (P00533 whole entry): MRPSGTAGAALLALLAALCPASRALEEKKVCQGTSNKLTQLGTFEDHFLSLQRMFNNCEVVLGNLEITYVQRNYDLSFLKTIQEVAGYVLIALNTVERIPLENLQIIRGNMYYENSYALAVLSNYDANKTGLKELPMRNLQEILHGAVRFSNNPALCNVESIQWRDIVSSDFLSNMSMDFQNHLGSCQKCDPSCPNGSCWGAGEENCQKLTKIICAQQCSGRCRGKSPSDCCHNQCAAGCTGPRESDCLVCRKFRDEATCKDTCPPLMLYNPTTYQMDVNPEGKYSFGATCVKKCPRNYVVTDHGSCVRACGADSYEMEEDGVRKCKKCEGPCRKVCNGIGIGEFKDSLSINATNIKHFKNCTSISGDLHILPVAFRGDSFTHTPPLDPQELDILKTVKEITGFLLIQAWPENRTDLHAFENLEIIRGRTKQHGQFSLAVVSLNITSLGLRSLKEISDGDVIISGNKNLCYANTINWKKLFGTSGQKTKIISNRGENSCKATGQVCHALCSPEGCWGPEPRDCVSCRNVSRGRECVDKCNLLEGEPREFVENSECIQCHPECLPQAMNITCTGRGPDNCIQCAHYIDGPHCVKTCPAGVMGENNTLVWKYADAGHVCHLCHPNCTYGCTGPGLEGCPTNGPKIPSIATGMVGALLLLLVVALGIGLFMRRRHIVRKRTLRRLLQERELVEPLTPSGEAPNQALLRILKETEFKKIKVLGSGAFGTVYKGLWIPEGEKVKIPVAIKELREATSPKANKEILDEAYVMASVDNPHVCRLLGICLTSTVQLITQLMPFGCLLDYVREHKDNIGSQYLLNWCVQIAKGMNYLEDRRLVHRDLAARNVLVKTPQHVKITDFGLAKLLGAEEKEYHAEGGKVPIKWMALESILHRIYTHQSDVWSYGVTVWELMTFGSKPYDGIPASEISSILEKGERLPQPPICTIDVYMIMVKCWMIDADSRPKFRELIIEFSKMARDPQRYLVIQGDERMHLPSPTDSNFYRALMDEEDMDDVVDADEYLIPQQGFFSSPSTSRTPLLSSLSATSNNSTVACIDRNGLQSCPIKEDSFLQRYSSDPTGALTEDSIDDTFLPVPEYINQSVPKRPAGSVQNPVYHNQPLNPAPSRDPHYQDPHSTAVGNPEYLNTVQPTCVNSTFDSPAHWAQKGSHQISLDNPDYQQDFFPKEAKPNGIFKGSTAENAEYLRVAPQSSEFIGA

Row | Compound | IC50 [1] | IC50 [2] | IC50 (KB) | IC50 (L1210)
1 | C=C1[C@H](C)CCC[C@]1(C)CC/C(C)=C/CC1=C(O)C(=O)C=C(N[C@@H](C(=O)O)[C@H](C)O)C1=O | > 449 µM | > 449 µM | > 10 µg/mL | 4.6 µg/mL (≈ 10.3 µM)
2 | CC1=CCC[C@](C)(CC/C(C)=C/CC2=C(O)C(=O)C=C(N[C@@H](C(=O)O)[C@@H](C)O)C2=O)[C@@H]1C | 269 µM | > 449 µM | > 10 µg/mL | > 10 µg/mL
3 | C=C1[C@H](C)CCC[C@]1(C)CC/C(C)=C/CC1=C(O)C(=O)C=C(N[C@H](C(=O)O)C(C)C)C1=O | 435 µM | 104 µM | > 10 µg/mL | 4.4 µg/mL (≈ 9.92 µM)
4 | C=C1[C@H](C)CCC[C@]1(C)CC/C(C)=C/CC1=C(O)C(=O)C=C(N[C@@H](C(=O)O)C(C)C)C1=O | 293 µM | 142 µM | 6.2 µg/mL (≈ 14 µM) | 3.4 µg/mL (≈ 7.66 µM)
5 | CC1=CCC[C@](C)(CC/C(C)=C/CC2=C(O)C(=O)C=C(N[C@@H](C(=O)O)C(C)C)C2=O)[C@@H]1C | 334 µM | 83.4 µM | > 10 µg/mL | 3 µg/mL (≈ 6.76 µM)
6 | C=C1[C@H](C)CCC[C@]1(C)CC/C(C)=C/CC1=C(O)C(=O)C=C(OC)C1=O [METACHROMIN A] | > 558 µM | > 558 µM | > 10 µg/mL | 2.4 µg/mL (≈ 6.69 µM)
7 | C=C1[C@H](C)CCC[C@]1(C)CC/C(C)=C/CC1=C(O)C(=O)C=C(NCC(=O)O)C1=O [METACHROMIN L] | 491 µM | 311 µM | 4 µg/mL (≈ 9.96 µM) | 4 µg/mL (≈ 9.96 µM)
8 | CC1=CCC[C@](C)(CC/C(C)=C/CC2=C(O)C(=O)C=C(NCC(=O)O)C2=O)[C@@H]1C [METACHROMIN M] | > 498 µM | 197 µM | 5.4 µg/mL (≈ 13.4 µM) | 3.5 µg/mL (≈ 8.72 µM)
9 | C=C1[C@H](C)CCC[C@]1(C)CC/C(C)=C/CC1=C(O)C(=O)C=C(N[C@H](C(=O)O)[C@@H](C)O)C1=O [METACHROMIN N] | > 449 µM | 426 µM | > 10 µg/mL | > 10 µg/mL
10 | CC1=CCC[C@](C)(CC/C(C)=C/CC2=C(O)C(=O)C=C(N[C@@H](CO)C(=O)O)C2=O)[C@@H]1C [METACHROMIN Q] | > 463 µM | 51 µM | > 10 µg/mL | > 10 µg/mL

Further lines, with some results ahead:

Row | IC50 [1] | IC50 [2] | Compound | IC50 (KB) | IC50 (L1210)
11 | > 449 µM | 215 µM | CC1=CCC[C@](C)(CC/C(C)=C/CC2=C(O)C(=O)C=C(N[C@@H](C(=O)O)[C@H](C)O)C2=O)[C@@H]1C | > 10 µg/mL | > 10 µg/mL
12 | > 449 µM | > 449 µM | C=C1[C@H](C)CCC[C@]1(C)CC/C(C)=C/CC1=C(O)C(=O)C=C(N[C@H](C(=O)O)[C@H](C)O)C1=O | > 10 µg/mL | > 10 µg/mL
13 | > 449 µM | 89.8 µM | CC1=CCC[C@](C)(CC/C(C)=C/CC2=C(O)C(=O)C=C(N[C@H](C(=O)O)[C@H](C)O)C2=O)[C@@H]1C | > 10 µg/mL | > 10 µg/mL
14 | 211 µM | 180 µM | C=C1[C@H](C)CCC[C@]1(C)CC/C(C)=C/CC1=C(O)C(=O)C=C(N[C@@H](C(=O)O)[C@@H](C)O)C1=O | > 10 µg/mL | > 10 µg/mL
15 | > 463 µM | > 463 µM | C=C1[C@H](C)CCC[C@]1(C)CC/C(C)=C/CC1=C(O)C(=O)C=C(N[C@H](CO)C(=O)O)C1=O | > 10 µg/mL | 2.6 µg/mL (≈ 6.03 µM)
16 | > 463 µM | > 463 µM | CC1=CCC[C@](C)(CC/C(C)=C/CC2=C(O)C(=O)C=C(N[C@H](CO)C(=O)O)C2=O)[C@@H]1C | > 10 µg/mL | > 10 µg/mL
17 | 293 µM | 78.9 µM | CC1=CCC[C@](C)(CC/C(C)=C/CC2=C(O)C(=O)C=C(N[C@H](C(=O)O)C(C)C)C2=O)[C@@H]1C | > 10 µg/mL | 3.4 µg/mL (≈ 7.66 µM)
18 | > 558 µM | > 558 µM | COC1=CC(=O)C(O)=C(C/C=C(\C)CC[C@@]2(C)CCC=C(C)[C@H]2C)C1=O [METACHROMIN C] | > 10 µg/mL | 
19 | > 449 µM | 60.6 µM | CC1=CCC[C@](C)(CC/C(C)=C/CC2=C(O)C(=O)C=C(N[C@H](C(=O)O)[C@@H](C)O)C2=O)[C@@H]1C [METACHROMIN O] | > 10 µg/mL | > 10 µg/mL
20 | > 463 µM | 41.7 µM | C=C1[C@H](C)CCC[C@]1(C)CC/C(C)=C/CC1=C(O)C(=O)C=C(N[C@@H](CO)C(=O)O)C1=O [METACHROMIN P] | > 10 µg/mL | > 10 µg/mL
21 | 290 µM | 69.5 µM | CC1=CCC[C@H]2[C@](C)(CC3=C(O)C(=O)C=C(N[C@@H](CO)C(=O)O)C3=O)[C@@H](C)CC[C@]12C [NAKIJIQUINONE C] | 7.6 µg/mL (≈ 17.6 µM) | 3.8 µg/mL (≈ 8.81 µM)
